The record followed here is patent publication US9290511B2, “Thieno-pyrimidines, useful as potassium channel inhibitors” (XENTION LIMITED, priority 2011, dated 2016).

A value given as a limit tells only on which side of the number the result lay.

The assay has as its target T1, Kir3.1/3.4 (Rattus norvegicus, UniProt P48548+P63251).
T1 construct: expressed in transfected cells
T1 sequence (P63251 1-501): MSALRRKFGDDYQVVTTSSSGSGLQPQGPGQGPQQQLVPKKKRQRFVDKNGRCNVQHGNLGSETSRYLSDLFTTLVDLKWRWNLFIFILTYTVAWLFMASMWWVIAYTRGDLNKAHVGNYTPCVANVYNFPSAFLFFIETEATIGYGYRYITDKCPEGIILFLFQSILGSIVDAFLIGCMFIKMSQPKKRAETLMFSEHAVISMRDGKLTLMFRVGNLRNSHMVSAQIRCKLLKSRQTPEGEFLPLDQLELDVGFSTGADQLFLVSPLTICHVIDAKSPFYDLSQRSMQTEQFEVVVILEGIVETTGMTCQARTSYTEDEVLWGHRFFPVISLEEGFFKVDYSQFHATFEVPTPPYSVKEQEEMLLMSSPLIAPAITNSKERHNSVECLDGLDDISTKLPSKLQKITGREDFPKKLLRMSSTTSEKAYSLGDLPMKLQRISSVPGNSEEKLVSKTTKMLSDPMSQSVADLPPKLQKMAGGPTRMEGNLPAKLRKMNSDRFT
T1 sequence (P48548 1-419): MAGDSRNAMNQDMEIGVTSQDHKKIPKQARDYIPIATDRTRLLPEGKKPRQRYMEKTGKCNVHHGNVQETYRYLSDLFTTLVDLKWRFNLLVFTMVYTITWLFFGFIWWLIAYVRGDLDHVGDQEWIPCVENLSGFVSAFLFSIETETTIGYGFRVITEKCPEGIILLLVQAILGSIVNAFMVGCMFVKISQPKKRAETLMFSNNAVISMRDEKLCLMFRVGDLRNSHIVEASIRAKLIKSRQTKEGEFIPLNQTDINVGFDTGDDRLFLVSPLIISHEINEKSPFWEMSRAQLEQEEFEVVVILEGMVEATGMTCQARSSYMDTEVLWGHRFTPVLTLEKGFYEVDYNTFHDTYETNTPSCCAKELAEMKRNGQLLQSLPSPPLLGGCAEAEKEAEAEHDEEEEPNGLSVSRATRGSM
As to the kind of experiment: Kir3.1/3.4 Electrophysiology Method (manual whole-cell patch clamp). Type of assay: cell-based. The note with it: Electrophysiology Method (TABLE 1). Put shortly:
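Manual whole-cell patch clamp on HEK293 cells stably expressing rat Kir3.1/3.4, with GTPγS in the pipette. Cells were held at −60 mV and stepped to +60 mV, then ramped to −140 mV every 10 s. Steady-state inhibition at −140 mV was measured after subtracting leak recorded in zero-K+ bath.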
The molecule `CN(C)CCOCC1CCN(c2nc(N3CCC(C(N)=O)C3)nc3scc(-c4ccccc4)c23)CC1` (stereo not drawn) [Example 14, 1-[4-[4-(2-dimethylaminoethyloxymethyl)-1-piperidyl]-5-phenyl-thieno[2,3-d]pyrimidin-2-yl]pyrrolidine-3-carboxamide] showed an IC50 of under 500 nM. Next, `COc1ncc(F)cc1-c1csc2ncnc(N3C4CCC3CC(NC3CCC3)C4)c12` (stereo not drawn) [Example 346]: 500 to 3000 nM; `Cc1csc2ncnc(N3CCC(CNCCC4CCCN4C)CC3)c12` (stereo not drawn) [Example 243]: under 500 nM; `c1ccc(-c2csc3nc(N4CCC(COCCN5CCCC5)CC4)nc(N4CCOCC4)c23)cc1` [Example 276]: under 500 nM. `CN(C)[C@@H]1CCN(CC2CCN(c3ncnc4scc(-c5ccccc5)c34)CC2)C1` [Example 81, (3R)-N,N-dimethyl-1-[[1-(5-phenylthieno[2,3-d]pyrimidin-4-yl)-4-piperidyl]methyl]pyrrolidin-3-amine] yielded a half-inhibitory concentration (IC50) of under 500 nM.

For `CNC(=O)c1sc2ncnc(N3CCC(CN(C)C4CCN(C)C4)CC3)c2c1-c1ccccc1` (stereo not drawn) [Example 131], the IC50 is 3000 to 10000 nM. On to `CN1CCCCC1CCNCC1CCN(c2ncnc3scc(-c4ccccc4)c23)CC1` (stereo not drawn) [Example 80, 2-(1-methyl-2-piperidyl)-N-[[1-(5-phenylthieno[2,3-d]pyrimidin-4-yl)-4-piperidyl]methyl]ethanamine], for which the half-inhibitory concentration (IC50) is under 500 nM. Next, `CN1CCC(NCC2CCN(c3ncnc4scc(-c5ccccc5)c34)CC2)CC1` [Example 97, 1-methyl-N-[[1-(5-phenylthieno[2,3-d]pyrimidin-4-yl)-4-piperidyl]methyl]piperidin-4-amine]: under 500 nM. The same measure for `CN(C)CCN(C)CC1CCN(c2nc(N3CCC(C(N)=O)C3)nc3scc(-c4ccccc4)c23)CC1` (stereo not drawn) [Example 225]: under 500 nM. On to `NC(=O)[C@H]1CCCN1CCN1CCN(c2ncc3c(-c4ccccc4)csc3n2)CC1` [Example 147], for which the IC50 was under 500 nM. Turning to `c1sc2nc(N3CCC(COCCN4CCCC4)CC3)ncc2c1C1CCCCC1` [Example 283], the IC50 is under 500 nM. Next, `CN(C)C1CCN(CC2CCN(c3ncnc4scc(-c5ccccc5)c34)CC2)CC1` [Example 75, N,N-dimethyl-1-[[1-(5-phenylthieno[2,3-d]pyrimidin-4-yl)-4-piperidyl]methyl]piperidin-4-amine]: under 500 nM.

Consider `CC(C)c1csc2ncnc(N3C4CCC3CC(COCCN3CCCC3)C4)c12` (stereo not drawn) [Example 287], for which the IC50 is under 500 nM.

On to `CC(C)c1c(C(=O)N(C)C)sc2ncnc(N3CCC(COCCN4CCCC4)CC3)c12` [Example 133], for which the IC50 was 500 to 3000 nM. Regarding `CN1CCN(c2nc(N3CCC(CN(CCO)CCO)CC3)c3c(-c4ccccc4)csc3n2)CC1` [Example 107], the IC50 was 500 to 3000 nM. Next, `CC(=O)Nc1sc2nc(N3CCC(COCCN4CCCC4)CC3)ncc2c1-c1ccccc1` [Example 155, N-[5-phenyl-2-[4-(2-pyrrolidin-1-ylethoxymethyl)-1-piperidyl]thieno[2,3-d]pyrimidin-6-yl]acetamide]: 500 to 3000 nM.

Molecule `CN(C)C1CCCN(CC2CCCN(c3ncnc4scc(-c5ccccc5)c34)C2)C1` (stereo not drawn) [Example 208] came in with an IC50 of under 500 nM. Next, `c1ccc(-c2csc3ncnc(N4CC5C(COCCN6CCOCC6)C5C4)c23)cc1` (stereo not drawn) [Example 38, 4-[2-[[3-(5-phenylthieno[2,3-d]pyrimidin-4-yl)-3-azabicyclo[3.1.0]hexan-6-yl]methoxy]ethyl]morpholine]: 500 to 3000 nM; `COCC1C[C@H]2CC[C@@H](C1)N2c1nc(OC2CC3CC2CN3)nc2sc(C(=O)N(C)C)c(-c3ccccc3)c12` (stereo partly drawn) [Example 366, 2-(2-azabicyclo[2.2.1]heptan-5-yloxy)-4-[(1S,5R)-3-(methoxymethyl)-8-azabicyclo[3.2.1]octan-8-yl]-N,N-dimethyl-5-phenyl-thieno[2,3-d]pyrimidine-6-carboxamide]: 500 to 3000 nM. Next, `c1cc2c(N3C4CCC3COC4)nc(N3CCC(COCCN4CCCC4)CC3)nc2s1` [Example 302]: under 500 nM; `c1ccc(-c2csc3ncnc(N4CCC(CNCCC5CCCO5)CC4)c23)cc1` (stereo not drawn) [Example 102]: under 500 nM; `CN1CCC(N(C)CC2CCN(c3ncnc4scc(-c5ccccc5)c34)CC2)C1` (stereo not drawn) [Example 202]: under 500 nM. The same measure for `CN1CCCC1CCNCC1CCN(c2ncnc3scc(-c4ccccc4)c23)C1` (stereo not drawn) [Example 204]: under 500 nM; for `COCC1CCN(c2nc(N(C)C3CCN(C)C3)nc3scc(-c4ccccc4)c23)CC1` (stereo not drawn) [Example 193]: under 500 nM; for `Cc1sc2ncnc(N3CCC(CNCCC4CCCN4C)CC3)c2c1C` (stereo not drawn) [Example 220]: under 500 nM. `FC(F)(F)Oc1ccccc1-c1csc2ncnc(N3C4CCC3CC(NC3CCC3)C4)c12` (stereo not drawn) [Example 341]: the half-maximal inhibitory concentration (IC50) is under 500 nM. In turn, “5-phenyl-thieno[2,3-d]pyrimidine-2-carbonitrile [Example 338]” yielded an IC50 of under 500 nM. Molecule `COCC1CCN(c2nc(N3CCN(C)CC3)nc3scc(-c4ccccc4)c23)CC1` [Example 174] returned an IC50 of under 500 nM. The same measure for `CN1CCC(N(C)C(=O)C2CCN(c3ncnc4scc(-c5ccccc5)c34)CC2)C1` (stereo not drawn) [Example 249]: under 500 nM; for `CN1CCN(c2nc(N3CCC(CN4CCCC(N(C)C)C4)CC3)c3c(-c4ccccc4)csc3n2)CC1` (stereo not drawn) [Example 115]: under 500 nM; for `c1ccc(-c2csc3ncnc(N4[C@@H]5CC[C@H]4CC(COCCN4CCCC4)C5)c23)cc1` (stereo partly drawn) [Example 164, 5-phenyl-4-[(1S,5R)-3-(2-pyrrolidin-1-ylethoxymethyl)-8-azabicyclo[3.2.1]octan-8-yl]thieno[2,3-d]pyrimidine]: under 500 nM. Next, `CC(C)c1csc2ncnc(N3C4CCC3CC(OCCN3CCCC3)C4)c12` (stereo not drawn) [Example 297]: under 500 nM. In turn, `COCCNCC1CCN(c2nc(N3CCC(COC)CC3)c3c(-c4ccccc4)csc3n2)CC1` [Example 192] showed an IC50 of under 500 nM. With `CN1CCC(N(C)CC2CCN(c3ncnc4sc(C(=O)N(C)C)c(-c5ccccc5)c34)CC2)C1` (stereo not drawn) [Example 136], the IC50 was 500 to 3000 nM. The same measure for `c1ccc(-c2csc3ncnc(N4CCC(CNCCC5CC5)CC4)c23)cc1` [Example 103]: under 500 nM. On to `CC(NC1CC1)C1CCN(c2ncnc3scc(-c4ccccc4)c23)CC1` (stereo not drawn) [Example 96, N-[1-[1-(5-phenylthieno[2,3-d]pyrimidin-4-yl)-4-piperidyl]ethyl]cyclopropanamine], for which the IC50 is under 500 nM.

In turn, `CN1CCCC1CNCC1CCN(c2ncnc3scc(-c4ccccc4)c23)CC1` (stereo not drawn) [Example 84, N-[(1-methylpyrrolidin-2-yl)methyl]-1-[1-(5-phenylthieno[2,3-d]pyrimidin-4-yl)-4-piperidyl]methanamine] displayed an IC50 of under 500 nM.

With `CN1CCC(N(C)CC2CCN(c3nc(N4CCC(C(N)=O)C4)nc4scc(-c5ccccc5)c34)CC2)C1` (stereo not drawn) [Example 120, 1-[4-[4-[[methyl-(1-methylpyrrolidin-3-yl)amino]methyl]-1-piperidyl]-5-phenyl-thieno[2,3-d]pyrimidin-2-yl]pyrrolidine-3-carboxamide], the IC50 was under 500 nM. Next, `COC1CC2CCC(C1)N2c1nc(OC2CC3CC2CN3)nc2scc(-c3ccccc3)c12` (stereo not drawn) [Example 348]: under 500 nM; `CN(C)C1CCCN(CC2CCN(c3nc(N4CCC(C(N)=O)C4)nc4scc(-c5ccccc5)c34)CC2)C1` (stereo not drawn) [Example 123]: under 500 nM; `c1ccc(-c2csc3ncnc(N4CCC(COC5CCOC5)CC4)c23)cc1` (stereo not drawn) [Example 16, 5-phenyl-4-[4-(tetrahydrofuran-3-yloxymethyl)-1-piperidyl]thieno[2,3-d]pyrimidine]: 500 to 3000 nM. For `O=C(CNCC1CCN(c2ncnc3scc(-c4ccccc4)c23)CC1)N1CCCC1` [Example 105], the IC50 was under 500 nM.

Turning to `Cc1csc2ncnc(N3CCC(COCCC4CCCN4C)CC3)c12` (stereo not drawn) [Example 2, 5-methyl-4-[4-[2-(1-methylpyrrolidin-2-yl)ethoxymethyl]-1-piperidyl]thieno[2,3-d]pyrimidine], the IC50 was 500 to 3000 nM. In turn, “N-(2-pyrrolidin-1-ylethyl)thieno[2,3-d]pyrimidin-2-amine [Example 127]” had a 50% inhibitory concentration (IC50) of under 500 nM. With `FC(F)(F)C1CCN(CC2CCN(c3ncnc4scc(-c5ccccc5)c34)CC2)CC1` [Example 99, 5-phenyl-4-[4-[[4-(trifluoromethyl)-1-piperidyl]methyl]-1-piperidyl]thieno[2,3-d]pyrimidine], the IC50 was 500 to 3000 nM.
